For test [1], the system named is receptors in Classes I and III. Briefly: FET3-lacZ response of the human PAQR panel to 10 μM progesterone: Classes I and III. The format is cell-based. An excerpt:
Plasmids and primers. Human PAQRs were cloned into various vectors by PCR from commercially/publically available cDNAs. PAQRs were cloned into the pYES260 (Melcher, 2000), pRS316 (Liu et al., 1992) or pGREG536 (Jansen et al., 2005) expression vectors using gap repair. The pJK90 plasmid containing a Dual Topology Reporter (DTR)-tagged OST4 gene driven by the constitutive TPI1 promoter was kindly provided by Dr. Gunnar von Heijne (Stockholm University) (Kim et al., 2003). The OST4 open reading frame in pJK90 was replaced with the PAQR6 and mPRα open reading frames by gap repair. Primers for all cloning reactions are listed herein. Proteins expressed in pYES260 have an N-terminal 6×-histidine tag followed by a TEV protease cleavage site. Proteins expressed in pGREG536 have an N-terminal 7×-HA tag. Proteins expressed in the pRS316 vector are untagged. The pYES260, pRS316 and pGREG536 vectors allow for galactose-inducible expression via the GAL1 promoter. […] The FET3-lacZ plasmid was previously described (Kupchak et al., 2007). […]
(§1) Assays and growth conditions. […] Cells were allowed to grow to mid-log phase at which time the activity of the FET3 gene was monitored using a FET3-lacZ promoter-reporter construct. lacZ activities are presented as a percentage of activity seen in untreated cells expressing the appropriate empty expression vector control. […]

The next test deals with AdipoR2. Briefly: FET3-lacZ (pFET3-397) reporter repression in yeast expressing AdipoR2. It is filed as cell-based, human. The conditions noted are these: concentrations as high as 10 μM.
Excerpt: IZH1-4 were cloned into pRS316-GAL1 via gap repair as previously described (Lyons et al., 2004). The triple hemaglutinin epitope (3×HA) tagged construct of the IZH2 gene was generated by replacing the ZRC1 promoter and open reading frame in the YCpZRC1-HA plasmid (MacDiarmid et al., 2002) with those of IZH2. This was accomplished by gap repair of Age I-digested YCpZRC1-HA to generate pIZH2-3×HA. This construct has the IZH2 gene driven by its native promoter and retains the ZRC1 terminator sequence. The native IZH2 promoter was then exchanged with the GAL1 promoter using gap repair of pIZH2-3×HA plasmids cut with EcoN I. AdipoR1 and AdipoR2 were amplified from cDNAs obtained from OpenBiosystems (Accession #: BC010743 and BC051858, respectively). PCR products were cloned into NcoI/BamHI digested pYES260 vector (Melcher, 2000) by gap repair allowing for GAL1-driven expression. Plasmids containing GAL1-driven the TAP (Tandem Affinity Purification) tagged NRG1 and NRG2 constructs were purchased from OpenBiosystems.
Most experiments were performed in a defined EDTA-containing medium known as low iron medium (LIM) (Eide et al., 1992). Iron-deficiency and repletion were generated by adding either 1 μM or 1 mM of FeCl3, respectively, to LIM. 2% galactose was used to fully induce GAL1-driven gene overexpression. Total sugar concentration was maintained at 2% by the addition of raffinose in those experiments in which the % galactose was modulated to decrease expression levels. Cells were allowed to grow to mid-log phase in LIM and β-galactosidase assays on permeabilized yeast were performed as previously described (Lyons et al., 2000). […]
as §1

The text below walks through data of patent US8809001B2, “High throughput assays for inhibitors and activators of PAQR receptors” (University of Florida Research Foundation, Inc., priority 2007, dated 2014).

Regarding `CC(=O)[C@H]1CC[C@H]2[C@@H]3CCC4=CC(=O)CC[C@]4(C)[C@H]3CC[C@]12C` [Progesterone, progesterone], the “agonist effect on receptors in Classes I and III” value in test [1] was “ineffective”. In the test with AdipoR2, the “response of AdipoR2 to progesterone” value is given as “do not respond”.
